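Briefly, cells in 96-well plates were exposed to five compound concentrations for 48 h, and endpoints were estimated by linear interpolation. Abbreviation: GI50, concentration required for 50% inhibition of growth.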 Calls of active or inactive are those of the source. No stated cut-off is given here; in the data, active = GI50 up to about 1.1 µM and inactive = higher.
How the values were obtained:
Test in all cases: DTP human tumour cell line panel, 48 h
[1] = tested on: DLD-1
[2] = tested on: M19-MEL
[3] = tested on: LXFL 529
[4] = tested on: DMS-273
[5] = tested on: RXF 631
[6] = tested on: SNB-78
[7] = tested on: XF498
[8] = tested on: KM-20L2
[9] = tested on: HOP-18

Compound: Nc1ccc(C(c2ccccc2)(c2ccccc2)c2ccccc2)cc1
- GI50 [1]: 95.9 µM (inactive)
- GI50 [2]: 55.8 µM (inactive)
- GI50 [3]: 37.1 µM (inactive)
- GI50 [4]: 50.1 µM (inactive)
- GI50 [5]: 47 µM (inactive)
- GI50 [6]: 34.4 µM (inactive)
- GI50 [7]: 4.24 µM (inactive)

Compound: Cc1nc(N)nc(N)c1-c1ccc(Cl)c(Cl)c1 [METOPRINE]
- GI50 [1]: 0.427 µM (active)
- GI50 [2]: 2.36 µM (inactive)
- GI50 [3]: 0.404 µM (active)
- GI50 [8]: 0.94 µM (active)
- GI50 [4]: 0.157 µM (active)
- GI50 [9]: 25.8 µM (inactive)
- GI50 [6]: 26.3 µM (inactive)
- GI50 [7]: 34.8 µM (inactive)

Compound: C/C(O)=C1\CC2CN3CCc4c([nH]c5ccccc45)C3CC2CC1=O (stereo unspecified)
- GI50 [1]: 40.6 µM (inactive)
- GI50 [3]: 34.4 µM (inactive)
- GI50 [8]: 92 µM (inactive)
- GI50 [4]: 57.4 µM (inactive)
- GI50 [9]: 52.8 µM (inactive)
- GI50 [6]: 32.9 µM (inactive)
- GI50 [7]: 32 µM (inactive)

Compound: COc1ccc(C2C(Cl)C(=O)N2NC(=O)c2ccc(NC(C)=O)cc2)cc1 (stereo unspecified)
- GI50 [1]: > 100 µM (inactive)
- GI50 [2]: > 100 µM (inactive)
- GI50 [3]: > 100 µM (inactive)
- GI50 [8]: > 100 µM (inactive)
- GI50 [4]: > 100 µM (inactive)
- GI50 [6]: > 100 µM (inactive)
- GI50 [7]: > 100 µM (inactive)

Compound: O=C(CC1Sc2ccccc2NC1=O)Nc1cc(Cl)ccc1Cl (stereo unspecified)
- GI50 [1]: > 100 µM (inactive)
- GI50 [2]: > 100 µM (inactive)
- GI50 [3]: > 100 µM (inactive)
- GI50 [8]: > 100 µM (inactive)
- GI50 [4]: > 100 µM (inactive)
- GI50 [5]: > 100 µM (inactive)
- GI50 [6]: > 100 µM (inactive)

Compound: O=C(NC(=O)c1cc2cc(Br)cc(Br)c2oc1=O)Oc1ccccc1
- GI50 [1]: > 100 µM (inactive)
- GI50 [2]: > 100 µM (inactive)
- GI50 [3]: > 100 µM (inactive)
- GI50 [8]: > 100 µM (inactive)
- GI50 [4]: > 100 µM (inactive)
- GI50 [9]: > 100 µM (inactive)
- GI50 [6]: > 100 µM (inactive)
- GI50 [7]: 37.4 µM (inactive)

Compound: CCCCCCCCCCCCCCCC(=O)NCC(OCC)OCC
- GI50 [1]: > 100 µM (inactive)
- GI50 [2]: > 100 µM (inactive)
- GI50 [3]: > 100 µM (inactive)
- GI50 [8]: > 100 µM (inactive)
- GI50 [4]: > 100 µM (inactive)
- GI50 [9]: > 100 µM (inactive)
- GI50 [5]: > 100 µM (inactive)
- GI50 [6]: > 100 µM (inactive)
- GI50 [7]: > 100 µM (inactive)

Compound: N#C/N=C1\NC(Cc2ccccc2)C(=O)N1CCc1c[nH]c2ccccc12 (stereo unspecified)
- GI50 [1]: 33.9 µM (inactive)
- GI50 [2]: 30.1 µM (inactive)
- GI50 [3]: 30.1 µM (inactive)
- GI50 [4]: 27.7 µM (inactive)
- GI50 [6]: 21.8 µM (inactive)
- GI50 [7]: 27.4 µM (inactive)

Compound: CCOC(=O)c1nn2c(nc1=O)sc1ccc3ccccc3c12
- GI50 [1]: > 100 µM (inactive)
- GI50 [2]: > 100 µM (inactive)
- GI50 [3]: > 100 µM (inactive)
- GI50 [8]: > 100 µM (inactive)
- GI50 [4]: > 100 µM (inactive)
- GI50 [9]: > 100 µM (inactive)
- GI50 [6]: > 100 µM (inactive)

Compound: COC(=O)[C@H]1COC(=S)N1C(=O)[C@@H](C)[C@H](O)C(C)C
- GI50 [1]: > 100 µM (inactive)
- GI50 [2]: > 100 µM (inactive)
- GI50 [3]: > 100 µM (inactive)
- GI50 [8]: > 100 µM (inactive)
- GI50 [4]: > 100 µM (inactive)
- GI50 [9]: > 100 µM (inactive)
- GI50 [5]: > 100 µM (inactive)
- GI50 [6]: > 100 µM (inactive)
- GI50 [7]: > 100 µM (inactive)

Compound: CC(=O)OC(C)(C)/C=C/C(=O)[C@](C)(O)[C@H]1[C@H](O)C[C@@]2(C)[C@@H]3CC=C4[C@@H](C[C@H](O)[C@H](O)C4(C)C)[C@]3(C)C(=O)C[C@]12C
- GI50 [1]: 0.274 µM (active)
- GI50 [2]: 0.515 µM (active)
- GI50 [3]: 0.347 µM (active)
- GI50 [8]: 0.513 µM (active)
- GI50 [4]: 0.421 µM (active)
- GI50 [9]: 1.05 µM (active)
- GI50 [5]: 0.679 µM (active)
- GI50 [6]: 0.453 µM (active)
- GI50 [7]: 0.422 µM (active)

Compound: COC(=O)C(C(=O)C(=O)Nc1ccc(N)cc1[N+](=O)[O-])c1nc2ccc(Cl)cc2nc1O (stereo unspecified)
- GI50 [1]: > 100 µM (inactive)
- GI50 [2]: > 100 µM (inactive)
- GI50 [8]: > 100 µM (inactive)
- GI50 [4]: > 100 µM (inactive)
- GI50 [9]: 72.3 µM (inactive)
- GI50 [6]: > 100 µM (inactive)
- GI50 [7]: 70.8 µM (inactive)

Compound: Cc1c(C(=O)CC(=O)C(=O)Nc2ccc(Cl)cc2)[n+]([O-])c2ccccc2[n+]1[O-]
- GI50 [1]: > 100 µM (inactive)
- GI50 [2]: > 100 µM (inactive)
- GI50 [3]: > 100 µM (inactive)
- GI50 [8]: > 100 µM (inactive)
- GI50 [4]: > 100 µM (inactive)
- GI50 [9]: 75 µM (inactive)
- GI50 [6]: > 100 µM (inactive)
- GI50 [7]: > 100 µM (inactive)

Compound: CC(C)(C)N/N=C(\C(=O)Nc1nnc(S)[nH]1)C1C(=O)Nc2ccccc2[S+]1[O-] (stereo unspecified)
- GI50 [1]: > 100 µM (inactive)
- GI50 [2]: > 100 µM (inactive)
- GI50 [3]: > 100 µM (inactive)
- GI50 [8]: > 100 µM (inactive)
- GI50 [4]: > 100 µM (inactive)
- GI50 [9]: > 100 µM (inactive)
- GI50 [5]: > 100 µM (inactive)
- GI50 [6]: > 100 µM (inactive)
- GI50 [7]: > 100 µM (inactive)

Compound: C[C@]12CCc3nonc3C1CC[C@@H]1C2CC[C@]2(C)NC(=O)CCC12 (stereo partly specified)
- GI50 [2]: > 100 µM (inactive)
- GI50 [3]: > 100 µM (inactive)
- GI50 [8]: > 100 µM (inactive)
- GI50 [4]: > 100 µM (inactive)
- GI50 [9]: > 100 µM (inactive)
- GI50 [5]: > 100 µM (inactive)
- GI50 [6]: > 100 µM (inactive)
- GI50 [7]: > 100 µM (inactive)

Compound: ClCCNCCNCCCl.ClCCNCCNCCCl.[O-][Cl+3]([O-])([O-])O
- GI50 [1]: 18.5 µM (inactive)
- GI50 [2]: 27.2 µM (inactive)
- GI50 [3]: 17.2 µM (inactive)
- GI50 [8]: 67.3 µM (inactive)
- GI50 [4]: 27.5 µM (inactive)
- GI50 [9]: 24.3 µM (inactive)
- GI50 [6]: 44.6 µM (inactive)

Compound: Cc1cccc(C(C)(C)C)c1NC(=O)CC1C(=O)Nc2ccccc2S1(=O)=O (stereo unspecified)
- GI50 [1]: 5.5 µM (inactive)
- GI50 [2]: 12.4 µM (inactive)
- GI50 [3]: 12 µM (inactive)
- GI50 [8]: 9.29 µM (inactive)
- GI50 [4]: 4.25 µM (inactive)
- GI50 [6]: 8.24 µM (inactive)
- GI50 [7]: 11.1 µM (inactive)

Compound: COc1ccc2c(c1)CN1CCc3c(cc(OC)c(OC)c3OC)C1C2 (stereo unspecified)
- GI50 [1]: > 100 µM (inactive)
- GI50 [2]: > 100 µM (inactive)
- GI50 [3]: 39.4 µM (inactive)
- GI50 [8]: > 100 µM (inactive)
- GI50 [4]: > 100 µM (inactive)
- GI50 [9]: > 100 µM (inactive)
- GI50 [6]: > 100 µM (inactive)
- GI50 [7]: 38.7 µM (inactive)

Compound: COc1ccc(C2S/C(=C\c3ccccc3)C(=O)N2NC(=O)Cc2ccccc2)cc1 (stereo unspecified)
- GI50 [1]: > 100 µM (inactive)
- GI50 [2]: > 100 µM (inactive)
- GI50 [3]: > 100 µM (inactive)
- GI50 [4]: > 100 µM (inactive)
- GI50 [9]: > 100 µM (inactive)

Compound: COC(=O)C(c1n[nH]c2ccccc12)C(C(=O)OC)c1n[nH]c2ccccc12 (stereo unspecified)
- GI50 [1]: 36.3 µM (inactive)
- GI50 [2]: > 100 µM (inactive)
- GI50 [3]: 26.2 µM (inactive)
- GI50 [8]: > 100 µM (inactive)
- GI50 [9]: 59.2 µM (inactive)
- GI50 [5]: > 100 µM (inactive)
- GI50 [6]: 38.1 µM (inactive)
- GI50 [7]: 41.8 µM (inactive)

— ChEMBL document CHEMBL1201862, “PubChem BioAssay data set” (2004)
